# Test results: US20130287757A1, “COMPOSITION FOR THE REGENERATION OF ATROPHIC TISSUES” (MEDESTEA INTERNAZIONALE S.P.A., priority 2011, published 2013)
# B1: Papain FU (protein, UniProt P00784 134-345, looked up)
# Papain: IPEYVDWRQKGAVTPVKNQGSCGSCWAFSAVVTIEGIIKIRTGNLNEYSEQELLDCDRRSYGCNGGYPWSALQLVAQYGIHYRNTYPYEGVQRYCRSREKGPYAAKTDGVRQVQPYNEGALLYSIANQPVSVVLEAAGKDFQLYRGGIFVGPCGNKVDHAVAAVGYGPNYILIKNSWGTGWGENGYIRIKRGTGNSYGVCGLYTSSFYPVKN
# Tested on: biopsies from chronic atrophic ulcers (base and margins)
# Assay: Western Blot phenotypic analysis of cultured biopsies
# Type: cell-based, animal
# Set-up: key: −−− = absence of band; −/+ = slight presence of band; + = thin band present; ++ = medium band present; +++ = broad band present; ++++ = high band present; +++++ = diffuse band present
# Conditions: 15 days culture
# Experimental: The animal biopsy samples investigated are constituted of biopsies from chronic atrophic ulcers (base and margins). The biopsies were then sectioned into twelve parts ([…] controls, 1-11, and one sample, 12, to be treated for each patient) and suspended in a final volume of 25 ml of the respective culture solutions in plates (Lab-Tek chamber slides, Nunc, Kamstrup, Denmark) of 10 cm. Eleven types of control were prepared: • a negative control, untreated (1), i.e. treated exclusively with saline and antibiotics (as described above); • a positive control treated (2) with cell culture media commonly used for skin biopsies; • a control-3 treated with DMEM-LG/F 12 (1:1) culture medium and with the active ingredient described in Table 4. • a control-4 treated with DMEM-LG/F 12 (1:1) culture medium and with the active ingredient described in Table 5. • a control-5 treated with DMEM-LG/F 12 (1:1) culture medium and with the active ingredient described in Table 6. • a control-6 treated with DMEM-LG/F 12 (1:1) culture medium and with the active ingredient described in Table 7. • a control-8 treated with DMEM-LG/F 12 (1:1) culture medium and with the active ingredient described in Table 8. • a control-9 treated with DMEM-LG/F 12 (1:1) culture medium and with the active ingredient described in Table 9. • a control-10 treated with DMEM-LG/F12 (1:1) culture medium and with the active ingredient described in Table 10. • a control-11 treated with DMEM-LG/F12 (1:1) culture medium and with the active ingredient described in Table 11. One type of sample (12th portion of each biopsy investigated) was prepared, as follows: • sample-12: the biopsy findings of sample (12) were placed in plates (Lab-Tek chamber slides, Nunc, Kamstrup, Denmark) of 10 cm in culture medium in a solution Culture medium UL-MD. […] Two thirds of the culture medium was replaced every 7 days. All biopsy tissues used in culture constitute a possible optional substrate co-conditioning for the three-dimensional growth of the cellular samples investigated. […] After five washings, the membranes were incubated with the respective secondary antibodies (1:1000) conjugated with horseradish peroxidase (HRP, Santa Cruz, Calif., USA) for 1 h at room temperature, as shown below in Table 12.
Molecule,"CK-1 expression, Western Blot band","CK-10 expression, Western Blot band","CK-14 expression, Western Blot band","Collagen type I expression, Western Blot band","Collagen type IV expression, Western Blot band","CK-5 expression, Western Blot band"
"O=C(O)c1ccccc1O [CTRL 4, Salicylic acid]",++,+,+,+,,
"[O]=[Zn] [CTRL 6, Zinc oxide powder]",+,,+,,+,
"CC1(C)[C@@H](O)CC[C@]2(C)[C@H]3C(=O)C=C4[C@@H]5C[C@@](C)(C(=O)O)CC[C@]5(C)CC[C@@]4(C)[C@]3(C)CC[C@@H]12 [CTRL 8, Glycyrrhetic acid]",−/+,+,−/+,−/+,−/+,−/+
B1,+,,+,,,+

# Tested on: biopsies from chronic atrophic ulcers (base and margins)
# Assay: FACS of cell suspensions from cultured biopsies
# Type: cell-based, animal
# Conditions: geometric mean +/− Standard Deviation
# Experimental: The animal biopsy samples investigated are constituted of biopsies from chronic atrophic ulcers (base and margins).
# The biopsies were then sectioned into twelve parts ([…] controls, 1-11, and one sample, 12, to be treated for each patient) and suspended in a final volume of 25 ml of the respective culture solutions in plates (Lab-Tek chamber slides, Nunc, Kamstrup, Denmark) of 10 cm.
# One type of sample (12th portion of each biopsy investigated) was prepared, as follows: • sample-12: the biopsy findings of sample (12) were placed in plates (Lab-Tek chamber slides, Nunc, Kamstrup, Denmark) of 10 cm in culture medium in a solution Culture medium UL-MD.
# All the findings were incubated for 15 days in a Heraeus incubator thermostatically controlled to a temperature of 37° C. with an atmosphere containing 5% of constant supply of CO2 (v/v in air). Two thirds of the culture medium was replaced every 7 days. All biopsy tissues used in culture constitute a possible optional substrate co-conditioning for the three-dimensional growth of the cellular samples investigated.
# Cellular suspensions obtained after digestion with collagenase were transferred to 15-ml test tubes (Nunc, Kamstrup, Denmark) and fixed in 4% paraformaldehyde solution for 30 minutes at room temperature. After three washings with PBS (pH 7.4), the cells were permeabilized with Triton 0.1% for 15 minutes, […] at room temperature. The pellets of the samples (Sample, 12) and of the controls (CTRLs, 1-11) were resuspended to a final concentration of 5×10^5 cells/ml in PBS and incubated with the following primary antibodies (ABD serotec, Kidlington-Oxford, UK): anti-collagen type I, anti-collagen type anti-IV and anti-cytokeratins (CK)-1, -5, -10, -14. All monoclonal antibodies conjugated with R-phycoerythrin (PE) or fluorescein isothiocyanate (FITC) were used. Specific controls with the corresponding isotypes were divided for each monoclonal antibody (ABD serotec). The samples were submitted to quantitative analysis by a laser cytofluorometer (Epics profile II, Coulter, Hialeath, FL) at 488 nm, where the percentage of fluorescent cells (PFC) reflects the geometric mean of the field of interest. The threshold values (gates) were established using control samples labelled with the corresponding isotype. All the values were analysed with a minimum threshold of 15 000 cells.
# The results relating to the expression of collagen type I, collagen type IV and of cytokeratins (CK) 1, 5, 10 and 14 were expressed with a quantitative scale relative to the fluorescence expressed as a percentage value relative to the isotypes, after deducting the assumed nonspecific fluorescence (specific gate), as follows: […]
Molecule,"CK-1, FACS absolute value","CK-5, FACS absolute value","CK-10, FACS absolute value","CK-14, FACS absolute value","Collagen type I, FACS absolute value","Collagen type IV, FACS absolute value"
"O=C(O)c1ccccc1O [CTRL 4, Salicylic acid]",29 +/− 7,6 +/− 5,9 +/− 7,11 +/− 8,12 +/− 3,9 +/− 8
"[O]=[Zn] [CTRL 6, Zinc oxide powder]",14 +/− 11,2 +/− 2,1 +/− 1,10 +/− 7,3 +/− 2,12 +/− 8
"CC1(C)[C@@H](O)CC[C@]2(C)[C@H]3C(=O)C=C4[C@@H]5C[C@@](C)(C(=O)O)CC[C@]5(C)CC[C@@]4(C)[C@]3(C)CC[C@@H]12 [CTRL 8, Glycyrrhetic acid]",5 +/− 3,3 +/− 1,4 +/− 1,2 +/− 1,6 +/− 4,7 +/− 5
B1,11 +/− 9,8 +/− 5,1 +/− 1,19 +/− 14,5 +/− 4-,7 +/− 6

# Same assay, conditions: relative to the isotypes, nonspecific fluorescence deducted
Molecule,"CK-1, FACS fluorescence as percentage value [%]","CK-5, FACS fluorescence as percentage value [%]","CK-10, FACS fluorescence as percentage value [%]","CK-14, FACS fluorescence as percentage value [%]","Collagen type I, FACS fluorescence as percentage value [%]","Collagen type IV, FACS fluorescence as percentage value [%]"
"O=C(O)c1ccccc1O [CTRL 4, Salicylic acid]",14,0,1.9,1.25,3.9,0.3
"[O]=[Zn] [CTRL 6, Zinc oxide powder]",3,0,0,1.7,0.3,1.5
"CC1(C)[C@@H](O)CC[C@]2(C)[C@H]3C(=O)C=C4[C@@H]5C[C@@](C)(C(=O)O)CC[C@]5(C)CC[C@@]4(C)[C@]3(C)CC[C@@H]12 [CTRL 8, Glycyrrhetic acid]",1,1,0.5,0.1,0.9,0.9
B1,2,1.2,0,2,0.5,0.1
